Measurements: patent publication US10407445B2, “Hepatitis C virus inhibitors” (ENANTA PHARMACEUTICALS, INC., priority 2013, dated 2019)

Experiments:
[1] = system: HCV GT 2a-J6 replicon; assay: HCV replicon assay, GT2a chimeric replicon expressing NS5A from GT2a strain J6; format: cell-based; details: Hepatitis C virus, 72 h, read-out: EC50 2a J6
Method: The activity of compounds was determined against HCV replicons representing genotypes (GT) 1a, 1b, 2a, and 3a. To generate stable Huh-7.5-based cell lines, HCV replicons were engineered to express the Renilla luciferase reporter (hRluc) fused to the neomycin phosphotransferase (Neo) gene. GT2a and GT3a HCV replicons were based on the JFH-1 subgenomic replicon (Kato et al. 2003 Gastroenterology, 125:1808-1817), in which the NS5A gene was replaced with that of strains J6 and S52 (GT2a and G3a, respectively). The activity of compounds against GT1a replicons encoding NS5A mutations (M28T, Q30R, L31M, Y93C, and Y93H) was also determined in a transient replication assay. The parental GT1a and GT2a replicons (pH/SG-Neo(L+I) and pSG-Neo-JFH1, respectively) were licensed from Apath LLC (Saint Louis, Mo.). The parental GT 1b replicon (pFKi389lucubineo_3_3′_ET) was licensed from ReBLikon GmbH (Germany). HCV replicons were constructed by standard molecular biology techniques described below. All replicon constructs were verified by restriction enzyme digestion and DNA sequencing.
The plasmid pSG-hRlucNeo-JFH1 was generated from pSG-Neo-JFH1 (Kato et al. 2003, Gastroentrology 125:1808-1817). A fragment containing the JFH-1 5′ NTR—hRluc-Neo gene and two unique restriction sites (AgeI and PmeI) was synthesized (Integrated DNA Technologies, Coralville, Iowa). The resulting synthetic plasmid was digested with AgeI and PmeI and the excised fragment (5′NTR-hRluc-Neo) was ligated into pSG-Neo-JFH1 digested with the same enzymes to generate pSG-hRlucNeo-JFH1. To allow expression of heterologous NS5A sequences, an NS5A shuttle vector was generated from pSG-Neo-JFH1, in which the entire coding sequence of NS5A plus the first eight codons of NS5B were replaced with an AfeI restriction site. This was done by Infusion cloning (Clontech, Mountain View, Calif.) from two PCR products that were generated using pSG-Neo-JFH1 as a template and the following primer pairs:
Underlined sequences denote regions of overlap necessary for Infusion cloning. Purified PCR products were cloned directly into an NsiI/SnaBI digested pSG-Neo-JFH1 following the manufacturer's instructions to generate pSG-Neo-JFH1-5Ashuttle. The 2023 base pair AgeI/PmeI fragment from pSG-hRlucNeo-JFH1 was then ligated into pSG-Neo-JFH1-5Ashuttle to generate pSG-hRlucNeo-JFH1-5Ashuttle. To generate the 2a-2a-(J6) and 2a-3a-(S52) NS5A chimeric replicons, the full length NS5A sequences from GT2a strain J6 (accession AF177036) and GT3a strain S52 (accession GU814263), with the addition of the first eight codons of JFH-1 NS5B (5′-TCCATGTCATACTCCTGGACCGGG-3′), were synthesized by GeneArt (Life Technologies, Carlsbad Calif.). J6 and S52 NS5A sequences were then PCR amplified from the synthetic clones using the appropriate forward primer:
Underlined sequences denote regions of overlap with pSG-hRlucNeo-JFH1-5Ashuttle necessary for Infusion cloning. Purified PCR products were directly cloned into AfeI-digested shuttle vector by Infusion cloning following the manufacturer's instructions.
Stable HCV replicon cell lines were grown in complete media (Dulbecco's modified Eagle medium [DMEM], 2 mM L-glutamine, 0.1 mM essential amino acids, 1 mM sodium pyruvate, 10% heat inactivated fetal bovine serum) with the addition 500 μg/ml […] (G418). Huh7-lunet cells were maintained in the same medium without the addition of G418. Cells were routinely passaged at a dilution of 1:4 two times a week. The assay medium for both luciferase reporter HCV replicon and cytotoxicity assays used phenol red-free DMEM and lacked G418. For each stable replicon assay, a sixteen point half-log dilution series of compound was stamped (0.5 ul compound per well) into three replica 384-well plates, to which cells were added directly (4000 cells/well). […]

[2] = IV and PO single dose pharmacokinetic studies in SD rats; format: in vivo; details: Sprague-Dawley, rat, plasma, male SD rats, oral gavage 20 mg/kg vs IV bolus 2 mg/kg
Method: The pharmacokinetics of selected compounds was characterized in male Sprague-Dawley (SD) rats (250-300 g). […] The intravenous (IV) dosing vehicle was 5% ethanol and 95% of 20% 2-hydroxypropyl β-cyclodextrin in water. The oral dosing vehicle was 33% of Microemulsion Preconcentrate #5 (a lipid based self-emulsifying drug delivery system, SEDDS) and 67% of 50 mM citrate buffer (final pH 3.6).
Serial blood samples (approximately 0.3 mL each) were collected from jugular vein or other suitable vein at specified time points. For the IV dosing group, the blood samples were collected predose and at 0.08, 0.25, 0.50, 1, 3, 6, 8, and 24 hours after the start of dosing. For the oral group, the blood samples were collected predose and at 0.08, 0.25, 0.50, 1, 3, 6, 8, and 24 hours after dosing. The blood samples were collected into VACUTAINER™ tubes containing EDTA-K3 as the anti-coagulant and were centrifuged at approximately 4° C. to obtain plasma. The plasma samples were stored at −20° C. until analysis by LC/MS/MS.
A bioanalytical method utilizing high performance liquid chromatography coupled to tandem mass spectrometry (LC/MS/MS) was developed for analysis of the selected compound in rat plasma. Detection was performed using multiple reaction monitoring (MRM); Ions representing the precursor (M+H)^+ species was selected in quadrupole 1 (Q1) and collided with nitrogen gas in the collision cell (Q2) to generate specific product ion, which was subsequently monitored by quadrupole 3 (Q3). Standard curve and quality control samples were prepared in male rat plasma and processed in the same way as the test samples to generate quantitative data.
Pharmacokinetic parameters were generated using non-compartmental pharmacokinetic analysis (Phoenix WinNonlin, version 6.3). Values below the lower limit of quantification (LLOQ) were assigned a value of zero if predose and treated as missing thereafter. Area under the curve (AUC) was calculated using the linear trapezoidal rule. The oral bioavailability (% F) was determined by comparison of the area under the curve (AUC) of the compound in plasma following oral administration to that generated following intravenous administration.

SMILES | EC50 [1] [nM] | bioavailability [2] [%]
COC(=O)N[C@H](C(=O)N1C[C@]2(CCCOC2)C[C@H]1c1ncc(-c2ccc(-c3ccc4c(ccc5nc([C@@H]6C[C@@]7(CCCOC7)CN6C(=O)[C@@H](NC(=O)OC)C(C)C)[nH]c54)c3)cc2)[nH]1)C(C)C [Compound 11] | 2 | 7.1
COC(=O)N[C@H](C(=O)N1C[C@]2(CCCOC2)C[C@H]1c1ncc(-c2ccc(-c3ccc4c(ccc5nc([C@@H]6CC7(CC7)CN6C(=O)[C@@H](NC(=O)OC)C(C)C)[nH]c54)c3)cc2)[nH]1)C(C)C [Compound 28] | 13 | 7.2
COC(=O)N[C@H](C(=O)N1C[C@]2(CCCOC2)C[C@H]1c1ncc(-c2ccc(-c3ccc(-c4cnc([C@@H]5C[C@@H]6CCC[C@@H]6N5C(=O)[C@@H](NC(=O)OC)C(C)C)[nH]4)cc3)cc2)[nH]1)C(C)C [Compound 37] | 0.7 | 114
COC(=O)N[C@H](C(=O)N1CC2(CC2)C[C@H]1c1ncc(-c2ccc(-c3ccc4c(ccc5nc([C@@H]6C[C@@]7(CCCOC7)CN6C(=O)[C@@H](NC(=O)OC)C(C)C)[nH]c54)c3)cc2)[nH]1)C(C)C [Compound 8] | 8 | 4.1
COC(=O)N[C@H](C(=O)N1C[C@]2(CCCOC2)C[C@H]1c1ncc(-c2ccc(-c3ccc(-c4cnc([C@@H]5C[C@@H]6CCCC[C@@H]6N5C(=O)[C@@H](NC(=O)OC)C(C)C)[nH]4)cc3)cc2)[nH]1)C(C)C [Compound 32] | 2 | 24.1
COC(=O)N[C@H](C(=O)N1C[C@]2(CCCOC2)C[C@H]1c1nc2ccc3cc(-c4ccc5c(ccc6nc([C@@H]7C[C@@H]8CCC[C@@H]8N7C(=O)[C@@H](NC(=O)OC)C(C)C)[nH]c65)c4)ccc3c2[nH]1)C(C)C [Compound 9] | 0.04 | 2.6
COC(=O)N[C@H](C(=O)N1C[C@]2(CCCOC2)C[C@H]1c1nc2ccc3cc(-c4ccc5c(ccc6nc([C@@H]7C[C@@H]8CCCC[C@@H]8N7C(=O)[C@@H](NC(=O)OC)C(C)C)[nH]c65)c4)ccc3c2[nH]1)C(C)C [Compound 23] | 0.05 | 5.5
COC(=O)N[C@H](C(=O)N1[C@H](c2nc3ccc4cc(-c5ccc(-c6cnc([C@@H]7C[C@@]8(CCCOC8)CN7C(=O)[C@@H](NC(=O)OC)C7C[C@@H](C)O[C@H](C)C7)[nH]6)cc5)ccc4c3[nH]2)C[C@@H]2CCCC[C@@H]21)C(C)C (stereo in doubt) [Compound 38] | 0.09 | 12.4
COC(=O)N[C@H](C(=O)N1C[C@]2(CCCOC2)C[C@H]1c1nc2ccc3cc(-c4ccc5c(ccc6nc([C@@H]7C[C@@]8(CCCOC8)CN7C(=O)[C@@H](NC(=O)OC)C(C)C)[nH]c65)c4)ccc3c2[nH]1)C(C)C [Compound 31] | 0.3 | 3.8
COC(=O)N[C@H](C(=O)N1CCC[C@H]1c1nc2ccc3cc(-c4ccc5c(ccc6nc([C@@H]7C[C@@]8(CCCOC8)CN7C(=O)[C@@H](NC(=O)OC)C(C)C)[nH]c65)c4)ccc3c2[nH]1)C(C)C [Compound 48] | 0.03 | 1.7
COC(=O)N[C@H](C(=O)N1C[C@]2(CCCOC2)C[C@H]1c1ncc(-c2ccc(-c3ccc4c(ccc5nc([C@@H]6C[C@H]7C[C@H]7N6C(=O)[C@@H](NC(=O)OC)C(C)C)[nH]c54)c3)cc2)[nH]1)C(C)C [Compound 18] | 2 | 3.3
COC(=O)N[C@H](C(=O)N1C[C@]2(CCCOC2)C[C@H]1c1ncc(-c2ccc(-c3ccc4c(ccc5nc([C@@H]6C[C@@H]7CCCC[C@@H]7N6C(=O)[C@@H](NC(=O)OC)C(C)C)[nH]c54)c3)cc2)[nH]1)C(C)C [Compound 29] | 2 | 17.1
COC(=O)N[C@H](C(=O)N1C[C@]2(CCCOC2)C[C@H]1c1nc2ccc3cc(-c4ccc(-c5cnc([C@@H]6C[C@@H]7CCC[C@@H]7N6C(=O)[C@@H](NC(=O)OC)C(C)C)[nH]5)cc4)ccc3c2[nH]1)C(C)C [Compound 10] | 0.2 | 5.7
